{"source": "patent US4517191A", "about": "“1-Amino-1,8-naphthyridine compounds useful as bactericides” (Sterling Drug Inc., priority 1983, dated 1985)", "key": {"Bacteria": {"tested_on": "Bacteria", "experiment": "in vitro antibacterial activity, serial dilution, stated for the bacteria as a whole", "type": "cell-based", "settings": "at the highest concentrations tested (62.5-500 mcg/ml)", "protocol": "(§1) The in vitro antibacterial activity of the compounds of the invention was determined by conventional serial dilution procedures. Bacterial cultures were grown in tryptose phosphate broth or brain heart infusion broth (containing heat-inactivated normal horse serum for tests with S. pyogenes) overnight at 37° C. and subsequently diluted in double strength broth to provide bacterial inocula of about 2×10^5 cells/ml. Aqueous solutions of the compounds of Formula I where R\" is hydrogen were prepared by dissolving the free acid form in 0.5N sodium hydroxide. The solutions were diluted with sterile distilled water to 1000 mcg/ml of compound in terms of the free acid. Serial two-fold dilutions of the compound stock solutions were prepared in water and 0.5 ml of each dilution was transferred to sets of tubes, one set for each bacterial inoculum. Each tube was then inoculated with 0.5 ml of the appropriate culture, resulting in a final bacterial concentration of about 1×10^5 cells/ml. The minimal inhibitory concentration (MIC), defined as the lowest concentration of the test compound to inhibit visible bacterial growth, was recorded after 18-20 hours of static incubation at 37° C. The results are recorded in Table I:\nThese are intermediates for the compounds of Examples 5 and 7."}, "Escherichia coli Vogel [1]": {"tested_on": "Escherichia coli Vogel", "experiment": "in vivo antibacterial activity in infected female mice (E. coli)", "settings": "sc, 168 h, E. coli i.p. infection, medicated once s.c. one-half hour post infection, deaths recorded for seven days, read-out: Protective Dose (PD50)", "protocol": "(§2) The in vivo antibacterial activity of the compounds of the invention was determined in female mice, 18-20 grams each, by the following procedure:\n(§3) Aqueous solutions of the compounds of Formula I where R\" is hydrogen were prepared by dissolving the free acid form in dilute sodium hydroxide and diluting the solution with distilled water to the desired volume.\n(§4) Cultures of Escherichia coli Vogel prepared in brain heart infusion broth, and cultures of Klebsiella pneumoniae 39645 grown in tryptose phosphate broth with 5% rabbit serum diluted in the same broth were used to infect the mice as follows:\nE coli: mice were inoculated intraperitoneally with 0.5 ml of the bacerial test inoculum (1.87×10^7 and 5×10^6 cells/ml respectively).\nMice infected with E. coli were medicated once (0.5 ml) one-half hour post infection, the test compound being administered by the subcutaneous (s.c.) route. Deaths were recorded daily for seven days.\n(§5) Groups of ten animals each for four or five dose levels were thus treated and the number of survivors in each group recorded. The fifty percent protective dose values (PD50) were then calculated."}, "[2]": {"tested_on": "Klebsiella pneumoniae 39645", "experiment": "in vivo antibacterial activity in infected female mice (K. pneumoniae)", "settings": "Klebsiella pneumoniae, 39645, sc, 336 h, K. pneumoniae i.m. infection, s.c. 17 h and 1 h preinfection, 6 h postinfection, twice a day for next three days, deaths recorded for fourteen days, read-out: Protective Dose (PD50)", "protocol": "as §2, §3, §4\nK. pneumoniae: mice were inoculated intramuscularly in the right hind leg with 0.2 ml of the bacterial test inoculum (2.05×10^4 cells/ml).\nMice infected with K. pneumoniae were medicated at the following times: seventeen hours and one hour preinfection, six hours postinfection and twice a day for the next three days. The test compound was administered the subcutaneous (0.2 ml) route. Deaths were recorded daily for fourteen days.\nas §5"}, "Escherichia coli Vogel [3]": {"tested_on": "Escherichia coli Vogel", "experiment": "in vitro antibacterial activity, serial dilution (MIC)", "type": "cell-based", "settings": "18-20 hours at 37° C., about 1×10^5 cells/ml, read-out: Minimal Inhibitory Concentration", "protocol": "as §1, with “C.” for “C. The results are recorded in Table I:”"}, "[4]": {"tested_on": "Pseudomonas aeruginosa MGH-2", "experiment": "in vitro antibacterial activity, serial dilution (MIC)", "type": "cell-based", "settings": "MGH2, 18-20 hours at 37° C., about 1×10^5 cells/ml, read-out: Minimal Inhibitory Concentration", "protocol": "as §1, with “C.” for “C. The results are recorded in Table I:”"}, "[5]": {"tested_on": "Staphylococcus aureus Smith", "experiment": "in vitro antibacterial activity, serial dilution (MIC)", "type": "cell-based", "settings": "18-20 hours at 37° C., about 1×10^5 cells/ml, read-out: Minimal Inhibitory Concentration", "protocol": "as §1, with “C.” for “C. The results are recorded in Table I:”"}, "Proteus mirabilis MGH-1": {"tested_on": "Proteus mirabilis MGH-1", "experiment": "in vitro antibacterial activity, serial dilution (MIC)", "type": "cell-based", "settings": "MGH1, 18-20 hours at 37° C., about 1×10^5 cells/ml, read-out: Minimal Inhibitory Concentration", "protocol": "as §1, with “C.” for “C. The results are recorded in Table I:”"}, "Proteus vulgaris 9920": {"tested_on": "Proteus vulgaris 9920", "experiment": "in vitro antibacterial activity, serial dilution (MIC)", "type": "cell-based", "settings": "18-20 hours at 37° C., about 1×10^5 cells/ml, read-out: Minimal Inhibitory Concentration", "protocol": "as §1, with “C.” for “C. The results are recorded in Table I:”"}, "[6]": {"tested_on": "Streptococcus pyogenes C203", "experiment": "in vitro antibacterial activity, serial dilution (MIC)", "type": "cell-based", "settings": "broth containing heat-inactivated normal horse serum, 18-20 hours at 37° C., about 1×10^5 cells/ml, read-out: Minimal Inhibitory Concentration", "protocol": "as §1, with “C.” for “C. The results are recorded in Table I:”"}, "[7]": {"tested_on": "Klebsiella pneumoniae 39645", "experiment": "in vitro antibacterial activity, serial dilution (MIC)", "type": "cell-based", "settings": "18-20 hours at 37° C., about 1×10^5 cells/ml, read-out: Minimal Inhibitory Concentration", "protocol": "as §1, with “C.” for “C. The results are recorded in Table I:”"}}, "data": [{"smiles": "CCOC(=O)c1cn(N)c2nc(C)ccc2c1=O", "note": "[Example 1, Ethyl 1-amino-1,4-dihydro-7-methyl-4-oxo-1,8-naphthyridine-3-carboxylate]", "values": [{"measurement": "in vitro antibacterial activity", "setting": "Bacteria", "result": "inactive"}]}, {"smiles": "Cc1ccc2c(=O)c(C(=O)O)cn(N)c2n1", "note": "[Example 2, 1-Amino-1,4-dihydro-7-methyl-4-oxo-1,8-naphthyridine-3-carboxylic acid]", "values": [{"measurement": "in vitro antibacterial activity", "setting": "Bacteria", "result": "inactive"}]}, {"smiles": "CCOC(=O)c1cn(N(C)C=O)c2nc(C)ccc2c1=O", "note": "[Example 4, Ethyl 1-(N-formylmethylamino)-1,4-dihydro-7-methyl-4-oxo-1,8-naphthyridine-3-carboxylate]", "values": [{"measurement": "in vitro antibacterial activity", "setting": "Bacteria", "result": "inactive"}]}, {"smiles": "CNn1cc(C(=O)O)c(=O)c2ccc(C)nc21", "note": "[Example 5, 1,4-Dihydro-7-methyl-1-methylamino-4-oxo-1,8-naphthyridine-3-carboxylic acid]", "values": [{"measurement": "ED50", "setting": "Escherichia coli Vogel [1]", "result": 141, "unit": "mg/kg"}, {"measurement": "ED50", "setting": "[2]", "result": "> 200", "unit": "mg/kg"}, {"measurement": "MIC", "setting": "Escherichia coli Vogel [3]", "result": 31.3, "unit": "µg/mL"}, {"measurement": "MIC", "setting": "[4]", "result": "> 500", "unit": "µg/mL"}, {"measurement": "MIC", "setting": "[5]", "result": "> 500", "unit": "µg/mL"}, {"measurement": "MIC", "setting": "Proteus mirabilis MGH-1", "result": 62.5, "unit": "µg/mL"}, {"measurement": "MIC", "setting": "Proteus vulgaris 9920", "result": 62.5, "unit": "µg/mL"}, {"measurement": "MIC", "setting": "[6]", "result": "> 500", "unit": "µg/mL"}, {"measurement": "MIC", "setting": "[7]", "result": 62.5, "unit": "µg/mL"}]}, {"smiles": "CCOC(=O)c1cn(N(C=O)CC)c2nc(C)ccc2c1=O", "note": "[Example 6, Ethyl 1-(N-formylethylamino)-1,4-dihydro-7-methyl-4-oxo-1,8-naphthyridine-3-carboxylate]", "values": [{"measurement": "in vitro antibacterial activity", "setting": "Bacteria", "result": "inactive"}, {"measurement": "ED50", "setting": "Escherichia coli Vogel [1]", "result": 53.5, "unit": "mg/kg"}, {"measurement": "ED50", "setting": "[2]", "result": "> 200", "unit": "mg/kg"}]}, {"smiles": "CCNn1cc(C(=O)O)c(=O)c2ccc(C)nc21", "note": "[Example 7, 1-Ethylamino-1,4-dihydro-7-methyl-4-oxo-1,8-naphthyridine-3-carboxylic acid]", "values": [{"measurement": "ED50", "setting": "Escherichia coli Vogel [1]", "result": 93, "unit": "mg/kg"}, {"measurement": "ED50", "setting": "[2]", "result": "> 200", "unit": "mg/kg"}, {"measurement": "MIC", "setting": "Escherichia coli Vogel [3]", "result": 31.3, "unit": "µg/mL"}, {"measurement": "MIC", "setting": "[4]", "result": "> 500", "unit": "µg/mL"}, {"measurement": "MIC", "setting": "[5]", "result": "> 500", "unit": "µg/mL"}, {"measurement": "MIC", "setting": "Proteus mirabilis MGH-1", "result": 250, "unit": "µg/mL"}, {"measurement": "MIC", "setting": "Proteus vulgaris 9920", "result": 15.6, "unit": "µg/mL"}, {"measurement": "MIC", "setting": "[6]", "result": "> 500", "unit": "µg/mL"}, {"measurement": "MIC", "setting": "[7]", "result": 125, "unit": "µg/mL"}]}]}
